The subject of experiment [1] is Ba/F3-EGFR-WT cells. In words: Proliferation assay in BA/F3 (wild type) cells (Cell Titer-Glo). Format: cell-based. On the procedure:
(§1) Cellular Data Description (WT, insSVD, Ins ASV)
(§2) Plates were incubated at 37° C. for 48 h. Retrovirus was harvested by filtering the media supernatant through a 0.45 μm filter.
(§3) Ba/F3 cells purchased from DSMZ were grown in RPMI+10% FBS+10 ng/mL IL-3 and infected with filtered retroviral supernatant at a 1:2 dilution. Polybrene was added to a concentration of 8 μg/mL, plates were spun for 90 min, and incubated overnight at 37° C. 2 μg/mL puromycin was added to the infected cells 24 h after infection and cells were continually grown in the presence of puromycin and 10 ng/mL IL-3. Following stably expressing Ba/F3 cell lines were generated: Ba/F3-EGFR-WT, Ba/F3-EGFR-insSVD.
(§4) The cells ectopically expressing WT EGFR were plated with 10 ng/mL Millipore Culture grade EGF. The cells ectopically expressing EGFR-insSVD were plated without EGF.
(§5) 100 nL of compound was added to each well using a 100 nL pin head, and plates were incubated at 37° C. for 48 h.
(§6) Cell viability was measured by adding 30 μL of Cell Titer-Glo Luminescent Cell Viability Reagent. Plates were sealed with Perkin Elmer Top-Seal, inverted several times to mix, and immediately centrifuged at 1000 rpm for 2 min. Plates were incubated in low light conditions for 8-10 min and luminescence was measured.

The subject of experiment [2] is Ba/F3-EGFR-insSVD cells. Nature of the experiment: Proliferation assay in BA/F3 (ins SVD) cells (Cell Titer-Glo). Format: cell-based. On the procedure: as §1, §2, §3, §4, §5, §6
Experiment [3] addresses EGFR ins SVD (insertion of SVD between D770 and N771) (Homo sapiens, UniProt P00533, INS767SVD). Nature of the experiment: Exon 20-Mutant-EGFR(D770_N771insSVD) kinase assay (TR-FRET). It is filed as biochemical. To be noted: Table 9; read-out: mutEGFR (D770_N771insSVD) kinase assay IC50.
Description: Exon 20-Mutant-EGFR(D770_N771insSVD) Kinase Assay
Inhibitory activity of compounds of the present invention against an Epidermal Growth Factor Receptor (EGFR) with an insertion of the amino acids sequence SVD between D770 and N771 was quantified employing the TR-FRET based kinase activity assay as described in the following paragraphs.
For the assay 50 nl of a 100-fold concentrated solution of the test compound in DMSO was pipetted into either a black low volume 384 well microtiter plate or a black 1536 well microtiter plate (both Greiner Bio-One, Frickenhausen, Germany), 2 μl of a solution of EGFR in aqueous assay buffer [50 mM Hepes pH 7.0, 10 mM MgCl2, 1 mM dithiothreitol, 0.5 mM EGTA, 0.3 mM activated sodium ortho-vanadate, 0.005% (w/v) bovine serum albumin, 0.005% (v/v) Tween-20] were added and the mixture was incubated for 15 min at 22° C. to allow pre binding of the test compounds to the enzyme before the start of the kinase reaction. […] The concentration of EGFR was adjusted depending of the activity of the enzyme lot and was chosen appropriate to have the assay in the linear range, typical concentration was 15 pg/μl. The reaction was stopped by the addition of 3 μl of a solution of HTRF detection reagents (83.3 nM streptavidine-XL665 [Cisbio Bioassays, Codolet, France] and 1.67 nM PT66-Tb-Cryptate, a terbium-cryptate labelled anti-phospho-tyrosine antibody from Cisbio Bioassays [instead of the PT66 Tb cryptate PT66 Eu Chelate from Perkin Elmer can also be used]) in an aqueous EDTA-solution (133.3 mM EDTA, 0.2% (w/v) bovine serum albumin in 50 mM HEPES pH 7.5).
The resulting mixture was incubated 1 h at 22° C. to allow the binding of the biotinylated phosphorylated peptide to the streptavidine-XL665 and the PT66-Tb-Cryptate. Subsequently the amount of phosphorylated substrate was evaluated by measurement of the resonance energy transfer from the PT66-Tb-Cryptate to the streptavidine-XL665.
Setting [4] is: Mus musculus, BaF3, 48 h, Table 10, plated with 10 ng/mL EGF.
Setting [5] is: Mus musculus, BaF3, 48 h, Table 10, plated without EGF.
Setting [6] is: Mus musculus, BaF3, Table 10, plated with 10 ng/mL EGF, 48 h.
The mark [7] stands for this setting: Mus musculus, BaF3, Table 10, plated without EGF, 48 h.

Several values for one entry are separate records, joined by “and”; a condition that tells them apart may be missing. Equal values may be shown once. Where a name gives a salt, the structure may show the parent alone. Where only a bound is given, the exact number is not on record here.

Chain of EGFR ins SVD (insertion of SVD between D770 and N771) (P00533 with tags, fused parts or gaps INS767SVD limits assumed): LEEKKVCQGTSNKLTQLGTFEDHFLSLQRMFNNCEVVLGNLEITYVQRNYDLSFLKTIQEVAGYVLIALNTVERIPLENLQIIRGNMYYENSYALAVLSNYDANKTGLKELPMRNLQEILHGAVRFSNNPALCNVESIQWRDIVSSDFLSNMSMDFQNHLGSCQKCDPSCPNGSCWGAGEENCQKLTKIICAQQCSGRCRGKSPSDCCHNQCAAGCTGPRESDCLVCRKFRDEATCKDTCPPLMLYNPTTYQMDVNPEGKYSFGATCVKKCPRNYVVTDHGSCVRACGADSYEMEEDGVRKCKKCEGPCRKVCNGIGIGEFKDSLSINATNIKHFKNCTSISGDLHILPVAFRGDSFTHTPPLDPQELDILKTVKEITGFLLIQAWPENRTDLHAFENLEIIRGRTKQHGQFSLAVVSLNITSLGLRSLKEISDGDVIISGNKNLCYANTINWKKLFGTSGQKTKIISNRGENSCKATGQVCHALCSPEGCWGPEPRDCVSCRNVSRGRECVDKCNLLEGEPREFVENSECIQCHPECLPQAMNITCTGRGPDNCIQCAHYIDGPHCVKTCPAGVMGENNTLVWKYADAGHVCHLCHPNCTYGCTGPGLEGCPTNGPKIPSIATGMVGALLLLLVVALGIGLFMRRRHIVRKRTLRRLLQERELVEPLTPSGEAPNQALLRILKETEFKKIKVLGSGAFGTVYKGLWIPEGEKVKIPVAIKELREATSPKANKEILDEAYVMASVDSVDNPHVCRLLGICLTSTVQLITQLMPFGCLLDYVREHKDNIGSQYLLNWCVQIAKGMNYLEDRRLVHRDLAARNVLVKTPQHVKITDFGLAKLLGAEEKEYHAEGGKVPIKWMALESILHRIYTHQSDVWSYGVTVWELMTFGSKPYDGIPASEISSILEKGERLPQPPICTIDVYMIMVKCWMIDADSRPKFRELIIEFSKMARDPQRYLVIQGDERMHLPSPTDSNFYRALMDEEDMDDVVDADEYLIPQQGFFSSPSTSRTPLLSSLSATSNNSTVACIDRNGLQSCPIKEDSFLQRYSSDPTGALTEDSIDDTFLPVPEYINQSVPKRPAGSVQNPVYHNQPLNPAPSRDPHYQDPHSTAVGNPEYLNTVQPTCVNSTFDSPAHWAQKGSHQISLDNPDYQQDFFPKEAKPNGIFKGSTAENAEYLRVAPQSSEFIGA

Regarding `O=C1NCCc2[nH]c(-c3ccncc3OCC3CCCCO3)c(Nc3cccc(Cl)c3Cl)c21` (stereo not drawn) [Example 69, 3-(2,3-dichloroanilino)-2-{3-[(oxan-2-yl)methoxy]pyridin-4-yl}-1,5,6,7-tetrahydro-4H-pyrrolo[3,2-c]pyridin-4-one], the IC50 was 290 nM in experiment [1] (setting [4]), 12.4 nM in experiment [2] (setting [5]) and 0.106 nM in experiment [3].
Take `O=C1NCCc2[nH]c(-c3ccncc3OC[C@@H]3CCCO3)c(Nc3cccc(Cl)c3Cl)c21` [Example 70, 3-(2,3-dichloroanilino)-2-(3-{[(2S)-oxolan-2-yl]methoxy}pyridin-4-yl)-1,5,6,7-tetrahydro-4H-pyrrolo[3,2-c]pyridin-4-one]: the IC50 in experiment [1] (setting [4]) was 297 nM; in experiment [2] (setting [5]), 16.1 nM; in experiment [3] it was 0.0918 nM.
The corresponding values for `CN1CCC[C@H]1COc1cnccc1-c1[nH]c2c(c1Nc1cccc(Cl)c1Cl)C(=O)NCC2` [Example 71, 3-(2,3-dichloroanilino)-2-(3-{[(2S)-1-methylpyrrolidin-2-yl]methoxy}pyridin-4-yl)-1,5,6,7-tetrahydro-4H-pyrrolo[3,2-c]pyridin-4-one] are 781 nM, 20.2 nM and 0.258 nM.
The corresponding values for `COc1c(F)cccc1Nc1c(-c2ccncc2OCC(C)(C)O)[nH]c2c1C(=O)NCC2` [Example 72, 3-(3-fluoro-2-methoxyanilino)-2-[3-(2-hydroxy-2-methylpropoxy)pyridin-4-yl]-1,5,6,7-tetrahydro-4H-pyrrolo[3,2-c]pyridin-4-one] are 1010 nM, 67.7 nM and 0.144 nM.
The corresponding values for `CC(C)(O)COc1cnccc1-c1[nH]c2c(c1Nc1cccc(F)c1OC(F)F)C(=O)NCC2` [Example 73, 3-[2-(difluoromethoxy)-3-fluoroanilino]-2-[3-(2-hydroxy-2-methylpropoxy)pyridin-4-yl]-1,5,6,7-tetrahydro-4H-pyrrolo[3,2-c]pyridin-4-one] are 2520 nM, 416 nM and 0.167 nM.
With `COc1c(F)cccc1Nc1c(-c2ccncc2OCC(C)(C)N(C)C)[nH]c2c1C(=O)NCC2` [Example 74, 2-{3-[2-(dimethylamino)-2-methylpropoxy]pyridin-4-yl}-3-(3-fluoro-2-methoxyanilino)-1,5,6,7-tetrahydro-4H-pyrrolo[3,2-c]pyridin-4-one], the 50% inhibitory concentration (IC50) amounted to 4070 nM in experiment [1] (setting [4]), 97.9 nM in experiment [2] (setting [5]) and 0.865 nM in experiment [3].
`COc1c(F)cccc1Nc1c(-c2ccncc2OCC(C)(C)N2CCOCC2)[nH]c2c1C(=O)NCC2` [Example 75, 3-(3-fluoro-2-methoxyanilino)-2-{3-[2-methyl-2-(morpholin-4-yl)propoxy]pyridin-4-yl}-1,5,6,7-tetrahydro-4H-pyrrolo[3,2-c]pyridin-4-one]: the IC50 in experiment [1] (setting [6]) is 2360 nM; in experiment [2] (setting [7]), 98 nM; in experiment [3] it was 0.903 nM.
Regarding `CC(C)(COc1cnccc1-c1[nH]c2c(c1Nc1cccc(F)c1OC(F)F)C(=O)NCC2)N1CCOCC1` [Example 76, 3-[2-(difluoromethoxy)-3-fluoroanilino]-2-{3-[2-methyl-2-(morpholin-4-yl)propoxy]pyridin-4-yl}-1,5,6,7-tetrahydro-4H-pyrrolo[3,2-c]pyridin-4-one], the IC50 was determined as 2090 nM in experiment [1] (setting [6]), 250 nM in experiment [2] (setting [7]) and 0.845 nM in experiment [3].
`Cc1c(Cl)cccc1Nc1c(-c2ccncc2OC[C@@H]2CCCN2C)[nH]c2c1C(=O)NCC2` [Example 77, 3-(3-chloro-2-methylanilino)-2-(3-{[(2S)-1-methylpyrrolidin-2-yl]methoxy}pyridin-4-yl)-1,5,6,7-tetrahydro-4H-pyrrolo[3,2-c]pyridin-4-one]: the IC50 in experiment [1] (setting [4]) was determined as 1480 nM; in experiment [2] (setting [5]) it was 46.3 nM; in experiment [3] it was 0.727 nM.
For `COC(C)(C)COc1cnccc1-c1[nH]c2c(c1Nc1cccc(Cl)c1Br)C(=O)NCC2` [Example 78, 3-(2-bromo-3-chloroanilino)-2-[3-(2-methoxy-2-methylpropoxy)pyridin-4-yl]-1,5,6,7-tetrahydro-4H-pyrrolo[3,2-c]pyridin-4-one], the IC50 in experiment [1] (setting [4]) was 583 nM; in experiment [2] (setting [5]), 16 nM; in experiment [3], < 0.0725 nM and 0.0736 nM.
In the case of `O=C1NCCc2[nH]c(-c3ccncc3OCC3CCOC3)c(Nc3cccc(Cl)c3OC(F)F)c21` (stereo not drawn) [Example 79, 3-[3-chloro-2-(difluoromethoxy)anilino]-2-{3-[(oxolan-3-yl)methoxy]pyridin-4-yl}-1,5,6,7-tetrahydro-4H-pyrrolo[3,2-c]pyridin-4-one], the IC50 came to 1810 nM in experiment [1] (setting [4]), 118 nM in experiment [2] (setting [5]) and 0.242 nM in experiment [3].
For `COc1c(Cl)cccc1Nc1c(-c2ccncc2OC[C@@H]2CCCN2)[nH]c2c1C(=O)NCC2` [Example 80, 3-(3-chloro-2-methoxyanilino)-2-(3-{[(2S)-pyrrolidin-2-yl]methoxy}pyridin-4-yl)-1,5,6,7-tetrahydro-4H-pyrrolo[3,2-c]pyridin-4-one] the same measures were 1460 nM, 206 nM and 0.503 nM.
As for `O=C1NCCc2[nH]c(-c3ccncc3OCCN3CCOCC3)c(Nc3cccc(Cl)c3OC(F)F)c21` [Example 81, 3-[3-chloro-2-(difluoromethoxy)anilino]-2-{3-[2-(morpholin-4-yl)ethoxy]pyridin-4-yl}-1,5,6,7-tetrahydro-4H-pyrrolo[3,2-c]pyridin-4-one], the figures for the IC50 in experiment [1] (setting [6]), in experiment [2] (setting [7]) and in experiment [3] were 4190 nM, 405 nM and 0.441 nM, respectively.
Consider `O=C1NCCc2[nH]c(-c3ccncc3OCC3CCOCC3)c(Nc3cccc(Cl)c3OC(F)F)c21` [Example 82, 3-[3-chloro-2-(difluoromethoxy)anilino)-2-{3-[(oxan-4-yl)-methoxy]pyridin-4-yl}-1,5,6,7-tetrahydro-4H-pyrrolo[3,2-c]pyridin-4-one], for which the values for the IC50 in experiment [1] (setting [4]), in experiment [2] (setting [5]) and in experiment [3] were 8610 nM, 909 nM and 0.399 nM, respectively.
Regarding `COC(C)(C)COc1cnccc1-c1[nH]c2c(c1Nc1cccc(F)c1OC(F)F)C(=O)NCC2` [Example 83, 3-[2-(difluoromethoxy)-3-fluoroanilino]-2-[3-(2-methoxy-2-methylpropoxy)pyridin-4-yl]-1,5,6,7-tetrahydro-4H-pyrrolo[3,2-c]pyridin-4-one-hydrogen chloride (1/1) Salt], the IC50 in experiment [1] (Table 10, plated with 10 ng/mL EGF, 48 h) stood at 2290 nM; in experiment [2] (Table 10, plated without EGF, 48 h), 100 nM; in experiment [3] it was 0.167 nM.
Take `COc1c(F)cccc1Nc1c(-c2ccncc2OCCN2CCOCC2)[nH]c2c1C(=O)NCC2` [Example 84, 3-(3-fluoro-2-methoxyanilino)-2-{3-[2-(morpholin-4-yl)ethoxy]pyridin-4-yl}-1,5,6,7-tetrahydro-4H-pyrrolo[3,2-c]pyridin-4-one]: the figures for the IC50 in experiment [1] (setting [6]), in experiment [2] (setting [7]) and in experiment [3] were 2210 nM, 188 nM and 0.223 nM, respectively.
Consider `COc1c(F)cccc1Nc1c(-c2ccncc2OCC2CCCO2)[nH]c2c1C(=O)NCC2` (stereo not drawn) [Example 86, 3-(3-fluoro-2-methoxyanilino)-2-{3-[(oxolan-2-yl)methoxy]pyridin-4-yl}-1,5,6,7-tetrahydro-4H-pyrrolo[3,2-c]pyridin-4-one], for which the IC50 in experiment [1] (setting [4]) worked out at 377 nM; in experiment [2] (setting [5]) it was 12.8 nM; in experiment [3] it was 0.122 nM.
Turning to `COc1c(Cl)cccc1Nc1c(-c2ccncc2OCCOC(C)(C)C)[nH]c2c1C(=O)NCC2` [Example 87, 2-[3-(2-tert-butoxyethoxy)pyridin-4-yl]-3-(3-chloro-2-methoxyanilino)-1,5,6,7-tetrahydro-4H-pyrrolo[3,2-c]pyridin-4-one], the IC50 in experiment [1] (setting [4]) was 1060 nM; in experiment [2] (setting [5]), 34.4 nM; in experiment [3] it was 0.204 nM.
For `COc1c(F)cccc1Nc1c(-c2ccncc2OCC2CCCCN2C)[nH]c2c1C(=O)NCC2` (stereo not drawn) [Example 90, 3-(3-fluoro-2-methoxyanilino)-2-(3-{[1-methylpiperidin-2-yl]methoxy}pyridin-4-yl)-1,5,6,7-tetrahydro-4H-pyrrolo[3,2-c]pyridin-4-one], the figures for the IC50 in experiment [1] (setting [4]), in experiment [2] (setting [5]) and in experiment [3] were 2660 nM, 29 nM and 0.69 nM, respectively.
The corresponding values for `COc1c(F)cccc1Nc1c(-c2ccncc2OCCOC(C)(C)C)[nH]c2c1C(=O)NCC2` [Example 91, 2-[3-(2-tert-butoxyethoxy)pyridin-4-yl]-3-(3-fluoro-2-methoxyanilino)-1,5,6,7-tetrahydro-4H-pyrrolo[3,2-c]pyridin-4-one] are 1100 nM, 35.7 nM and 0.135 nM.
As to `COc1c(F)cccc1Nc1c(-c2ccncc2OC[C@@H](C)OC)[nH]c2c1C(=O)NCC2` [Example 92, 3-(3-fluoro-2-methoxyanilino)-2-{3-[(2R)-2-methoxypropoxy]pyridin-4-yl}-1,5,6,7-tetrahydro-4H-pyrrolo[3,2-c]pyridin-4-one], the IC50 in experiment [1] (setting [4]) came out at 309 nM; in experiment [2] (setting [5]), 10.4 nM; in experiment [3], 0.118 nM.

For the origin of these results see patent publication US11339157B1, “4H-pyrrolo[3,2-c]pyridin-4-one derivatives” (Bayer Aktiengesellschaft, priority 2017, dated 2022).
